Key:
Ebola Zaire Virus = assay type: cell-based, Ebola virus (strain Zaire)
Ebola Zaire = tested on: Ebola Zaire; design: species or system C57Bl/6 mice; settings: mouse, in vivo
[1] = mouse, in vivo
Marburg Ci67 = assay type: cell-based, Marburg virus
[2] = mouse
[3] = tested on: Ebola virus (strain Zaire); design: species or system Balb/c mice; settings: mouse, in vivo
Marburg Ravn = tested on: Marburg Ravn; design: species or system Balb/c mice; settings: mouse, in vivo

| SMILES | IC50 (Ebola Zaire Virus) | protection against Ebola virus (survival) (Ebola Zaire) | reversibility of symptoms after end of treatment [1] | weight loss [1] | weight loss compared to vehicle only control [1] | IC50 (Marburg Ci67) | weight loss or adverse effects in vivo [2] | survival rate [3] | protection against Marburg virus (survival) (Marburg Ravn) |
| --- | --- | --- | --- | --- | --- | --- | --- | --- | --- |
| CCCCCCCCCN1C[C@H](O)[C@@H](O)[C@H](O)[C@H]1CO [NN-DNJ, N-Nonyl deoxynojirimycin] | 12 µM |  |  |  |  |  |  |  |  |
| [N-]=[N+]=Nc1ccc(NCCCCCCN2C[C@H](O)[C@@H](O)[C@H](O)[C@H]2CO)c([N+](=O)[O-])c1 [NAP-DNJ, N—(N-{4′-azido-2′-nitrophenyl}-6-aminohexyl)deoxynojirimycin] | 6 µM | significant protection | symptoms promptly ceased when treatment was done | did not show signs of weight loss | did not show any significant signs of weight loss | 6 µM | no weight loss or adverse effects observed | 71% | protection |
| CCCOCCCCCCN1C[C@H](O)[C@@H](O)[C@H](O)[C@H]1CO [Compound N7-O-DNJ, N-(7-Oxadecyl)deoxynojirimycin] | 20 µM |  |  |  |  | 50 µM |  |  |  |
| COCCCCCCCCCN1C[C@H](O)[C@@H](O)[C@H](O)[C@H]1CO [Compound N9-DNJ, N-(9-Methoxynonyl) deoxynojirimycin] | 16 µM |  |  |  | did not show any significant signs of weight loss | 32 µM |  |  |  |
| CCCCN1C[C@H](O)[C@@H](O)[C@H](O)[C@H]1CO [NB-DNJ, N-Butyl deoxynojirimycin] | 32 µM |  |  |  | did not show any significant signs of weight loss |  |  |  |  |

— patent US20110065754A1 (priority 2009, published 2011)
